Measurements taken from ChEMBL document CHEMBL3885881, “DrugMatrix”.

Organism: Rattus norvegicus
Test: DrugMatrix - Regimen: Daily Repeat
Format: toxicity, organism-based, Sprague-Dawley
Set-up: regimen Daily Repeat, gender Male, age 6-8 weeks
Conditions: in vivo, iv, vehicle 100 % SALINE; for ABSOLUTE BASOPHIL / ABSOLUTE EOSINOPHIL / ABSOLUTE LYMPHOCYTE / ABSOLUTE MONOCYTE / ABSOLUTE SEGMENTED NEUTROPHIL / BASOPHIL / EOSINOPHIL / ERYTHROCYTE COUNT / HEMATOCRIT / HEMOGLOBIN / LEUKOCYTE COUNT / LYMPHOCYTE / MEAN CORPUSCULAR HEMOGLOBIN / MEAN CORPUSCULAR HEMOGLOBIN CONCENTRATION / MEAN CORPUSCULAR VOLUME / MONOCYTE / NEUTROPHIL / NUCLEATED RED BLOOD CELLS / PLATELET COUNT: tissue Blood; for ALANINE AMINOTRANSFERASE / ALBUMIN / ALKALINE PHOSPHATASE / ASPARTATE AMINOTRANSFERASE / BLOOD UREA NITROGEN / CARBON DIOXIDE / CHLORIDE / CHOLESTEROL / CREATINE PHOSPHOKINASE / CREATININE / GLUCOSE / LACTATE DEHYDROGENASE / LIPASE / PHOSPHORUS / POTASSIUM / SODIUM / TOTAL BILIRUBIN / TOTAL PROTEIN / URIC ACID: tissue Plasma
[1] = 0.07 mg/kg, 72 h, dose level Low, time 3 day
[2] = 0.07 mg/kg, 120 h, dose level Low, time 5 day
[3] = […], 72 h, dose 0.16 mg/Kg, dose level High, time 3 day
[4] = […], 120 h, dose 0.16 mg/Kg, dose level High, time 5 day

SMILES: CNC(=O)Oc1ccc2c(c1)[C@]1(C)CCN(C)[C@@H]1N2C [PHYSOSTIGMINE]
- ABSOLUTE BASOPHIL [1]: 0 CELLS/uL
- ABSOLUTE EOSINOPHIL [1]: 271.33 CELLS/uL
- ABSOLUTE LYMPHOCYTE [1]: 11715.67 CELLS/uL
- ABSOLUTE MONOCYTE [1]: 88.33 CELLS/uL
- ABSOLUTE SEGMENTED NEUTROPHIL [1]: 1491.33 CELLS/uL
- BASOPHIL [1]: 0%
- EOSINOPHIL [1]: 2%
- ERYTHROCYTE COUNT [1]: 5.08 x10E6/uL
- HEMATOCRIT [1]: 32.57%
- HEMOGLOBIN [1]: 12.27 G/DL
- LEUKOCYTE COUNT [1]: 13.57 x10E3/uL
- LYMPHOCYTE [1]: 86.67%
- MEAN CORPUSCULAR HEMOGLOBIN [1]: 24.13 pg
- MEAN CORPUSCULAR HEMOGLOBIN CONCENTRATION [1]: 37.67 G/DL
- MEAN CORPUSCULAR VOLUME [1]: 64.1 fL
- MONOCYTE [1]: 0.67%
- NEUTROPHIL [1]: 10.67%
- NUCLEATED RED BLOOD CELLS [1]: 0 /100WBC
- PLATELET COUNT [1]: 1091 x10E3/uL
- ALANINE AMINOTRANSFERASE [1]: 64.33 u/L
- ALBUMIN [1]: 4.03 G/DL
- ALKALINE PHOSPHATASE [1]: 342.67 u/L
- ASPARTATE AMINOTRANSFERASE [1]: 99.67 u/L
- BLOOD UREA NITROGEN [1]: 14.67 mg/dL
- CARBON DIOXIDE [1]: 24.67 mmol/L
- CHLORIDE [1]: 105.33 MEQ/L
- CHOLESTEROL [1]: 67.33 mg/dL
- CREATINE PHOSPHOKINASE [1]: 386 u/L
- CREATININE [1]: 0.14 mg/dL
- GLUCOSE [1]: 161.67 mg/dL
- LACTATE DEHYDROGENASE [1]: 95.33 u/L
- LIPASE [1]: 7.67 u/L
- PHOSPHORUS [1]: 12.37 mg/dL
- POTASSIUM [1]: 5.92 MEQ/L
- SODIUM [1]: 144.47 MEQ/L
- TOTAL BILIRUBIN [1]: 0.17 mg/dL
- TOTAL PROTEIN [1]: 5.73 G/DL
- URIC ACID [1]: 1.23 mg/dL
- ABSOLUTE BASOPHIL [2]: 0 CELLS/uL
- ABSOLUTE EOSINOPHIL [2]: 138.33 CELLS/uL
- ABSOLUTE LYMPHOCYTE [2]: 16178.33 CELLS/uL
- ABSOLUTE MONOCYTE [2]: 247.67 CELLS/uL
- ABSOLUTE SEGMENTED NEUTROPHIL [2]: 2735.67 CELLS/uL
- BASOPHIL [2]: 0%
- EOSINOPHIL [2]: 0.67%
- ERYTHROCYTE COUNT [2]: 5.42 x10E6/uL
- HEMATOCRIT [2]: 34.33%
- HEMOGLOBIN [2]: 13.27 G/DL
- LEUKOCYTE COUNT [2]: 19.3 x10E3/uL
- LYMPHOCYTE [2]: 84%
- MEAN CORPUSCULAR HEMOGLOBIN [2]: 24.43 pg
- MEAN CORPUSCULAR HEMOGLOBIN CONCENTRATION [2]: 38.7 G/DL
- MEAN CORPUSCULAR VOLUME [2]: 63.27 fL
- MONOCYTE [2]: 1.33%
- NEUTROPHIL [2]: 14%
- NUCLEATED RED BLOOD CELLS [2]: 0 /100WBC
- PLATELET COUNT [2]: 1244.33 x10E3/uL
- ALANINE AMINOTRANSFERASE [2]: 50 u/L
- ALBUMIN [2]: 4.33 G/DL
- ALKALINE PHOSPHATASE [2]: 370 u/L
- ASPARTATE AMINOTRANSFERASE [2]: 86.67 u/L
- BLOOD UREA NITROGEN [2]: 22 mg/dL
- CARBON DIOXIDE [2]: 24 mmol/L
- CHLORIDE [2]: 102 MEQ/L
- CHOLESTEROL [2]: 62.33 mg/dL
- CREATINE PHOSPHOKINASE [2]: 479.33 u/L
- CREATININE [2]: 0.2 mg/dL
- GLUCOSE [2]: 168 mg/dL
- LACTATE DEHYDROGENASE [2]: 93.67 u/L
- LIPASE [2]: 8 u/L
- PHOSPHORUS [2]: 13.33 mg/dL
- POTASSIUM [2]: 6.49 MEQ/L
- SODIUM [2]: 141.5 MEQ/L
- TOTAL BILIRUBIN [2]: 0.2 mg/dL
- TOTAL PROTEIN [2]: 6.17 G/DL
- URIC ACID [2]: 1.63 mg/dL
- ABSOLUTE BASOPHIL [3]: 0 CELLS/uL
- ABSOLUTE EOSINOPHIL [3]: 107 CELLS/uL
- ABSOLUTE LYMPHOCYTE [3]: 10987.67 CELLS/uL
- ABSOLUTE MONOCYTE [3]: 71.33 CELLS/uL
- ABSOLUTE SEGMENTED NEUTROPHIL [3]: 1134 CELLS/uL
- BASOPHIL [3]: 0%
- EOSINOPHIL [3]: 1%
- ERYTHROCYTE COUNT [3]: 5.42 x10E6/uL
- HEMATOCRIT [3]: 33.77%
- HEMOGLOBIN [3]: 13 G/DL
- LEUKOCYTE COUNT [3]: 12.3 x10E3/uL
- LYMPHOCYTE [3]: 88.33%
- MEAN CORPUSCULAR HEMOGLOBIN [3]: 24.03 pg
- MEAN CORPUSCULAR HEMOGLOBIN CONCENTRATION [3]: 38.57 G/DL
- MEAN CORPUSCULAR VOLUME [3]: 62.37 fL
- MONOCYTE [3]: 0.67%
- NEUTROPHIL [3]: 10%
- NUCLEATED RED BLOOD CELLS [3]: 0 /100WBC
- PLATELET COUNT [3]: 1231 x10E3/uL
- ALANINE AMINOTRANSFERASE [3]: 56.33 u/L
- ALBUMIN [3]: 4.17 G/DL
- ALKALINE PHOSPHATASE [3]: 305 u/L
- ASPARTATE AMINOTRANSFERASE [3]: 87.33 u/L
- BLOOD UREA NITROGEN [3]: 15.33 mg/dL
- CARBON DIOXIDE [3]: 27.67 mmol/L
- CHLORIDE [3]: 107 MEQ/L
- CHOLESTEROL [3]: 78.67 mg/dL
- CREATINE PHOSPHOKINASE [3]: 187.33 u/L
- CREATININE [3]: 0.13 mg/dL
- GLUCOSE [3]: 159.33 mg/dL
- LACTATE DEHYDROGENASE [3]: 115.33 u/L
- LIPASE [3]: 8.67 u/L
- PHOSPHORUS [3]: 13.93 mg/dL
- POTASSIUM [3]: 6.15 MEQ/L
- SODIUM [3]: 147.9 MEQ/L
- TOTAL BILIRUBIN [3]: 0.17 mg/dL
- TOTAL PROTEIN [3]: 5.83 G/DL
- URIC ACID [3]: 1.43 mg/dL
- ABSOLUTE BASOPHIL [4]: 0 CELLS/uL
- ABSOLUTE EOSINOPHIL [4]: 171.67 CELLS/uL
- ABSOLUTE LYMPHOCYTE [4]: 8706.33 CELLS/uL
- ABSOLUTE MONOCYTE [4]: 43.33 CELLS/uL
- ABSOLUTE SEGMENTED NEUTROPHIL [4]: 3645.33 CELLS/uL
- BASOPHIL [4]: 0%
- EOSINOPHIL [4]: 1.33%
- ERYTHROCYTE COUNT [4]: 5.7 x10E6/uL
- HEMATOCRIT [4]: 35.8%
- HEMOGLOBIN [4]: 13.57 G/DL
- LEUKOCYTE COUNT [4]: 12.57 x10E3/uL
- LYMPHOCYTE [4]: 68.67%
- MEAN CORPUSCULAR HEMOGLOBIN [4]: 23.8 pg
- MEAN CORPUSCULAR HEMOGLOBIN CONCENTRATION [4]: 37.9 G/DL
- MEAN CORPUSCULAR VOLUME [4]: 62.8 fL
- MONOCYTE [4]: 0.33%
- NEUTROPHIL [4]: 29.67%
- NUCLEATED RED BLOOD CELLS [4]: 0 /100WBC
- PLATELET COUNT [4]: 1062 x10E3/uL
- ALANINE AMINOTRANSFERASE [4]: 52.67 u/L
- ALBUMIN [4]: 4.03 G/DL
- ALKALINE PHOSPHATASE [4]: 416.33 u/L
- ASPARTATE AMINOTRANSFERASE [4]: 80 u/L
- BLOOD UREA NITROGEN [4]: 15 mg/dL
- CARBON DIOXIDE [4]: 26 mmol/L
- CHLORIDE [4]: 104 MEQ/L
- CHOLESTEROL [4]: 60 mg/dL
- CREATINE PHOSPHOKINASE [4]: 226.67 u/L
- CREATININE [4]: 0.22 mg/dL
- GLUCOSE [4]: 181 mg/dL
- LACTATE DEHYDROGENASE [4]: 200 u/L
- LIPASE [4]: 7.67 u/L
- PHOSPHORUS [4]: 13.3 mg/dL
- POTASSIUM [4]: 6.09 MEQ/L
- SODIUM [4]: 146.53 MEQ/L
- TOTAL BILIRUBIN [4]: 0.13 mg/dL
- TOTAL PROTEIN [4]: 6.43 G/DL
- URIC ACID [4]: 1.77 mg/dL
